# Reference: patent US20070015214A1, “Methods for identifying compounds for regulating muscle mass or function using prostanoid IP receptors” (The Procter & Gamble Company, priority 2005, published 2007)
# Marks after values point to notes of the source that are not given here.
# Tested on: casting-induced atrophy of the tibialis anterior and medial gastrocnemius muscles
# Test: mouse casting model of skeletal muscle atrophy
# Type: in vivo
# Conditions: fourteen days, casted right hind leg, male mice
# Experimental: The role of the prostanoid IP receptor in vivo is investigated in the mouse casting model of skeletal muscle atrophy using the pharmacological agents carbaprostacyclin, ciprostene, beraprost and iloprost (Cayman Chemical Company, Ann Arbor, Mich.) which are selective agonists for the prostanoid IP receptor. Eight mice are used per treatment group in the study described. Following casting of the right hind leg, male mice are injected subcutaneously in the midscapular region once daily, with either carbaprostacyclin, ciprostene, beraprost, iloprost or vehicle control (phosphate buffered saline), for fourteen days at the daily delivered dose indicated. On day fourteen, the tibialis anterior and medial gastrocnemius muscles are removed and weighed to determine the degree of atrophy. Percent inhibition of atrophy is calculated using the following formula: [formula] Statistical significance of the results is determined using ANCOVA (Douglas C. Montgomery, Design and Analysis of Experiments, John Wiley and Sons, New York (2nd ed. 1984).
# [1] = 0.3 mg/kg/d subcutaneously once daily
# [2] = 1.0 mg/kg/d subcutaneously once daily
# [3] = 3.0 mg/kg/d subcutaneously once daily
Compound,% inhibition of atrophy medial gastrocnemius muscle [1],% inhibition of atrophy tibialis anterior muscle [1],% inhibition of atrophy medial gastrocnemius muscle [2],% inhibition of atrophy tibialis anterior muscle [2],% inhibition of atrophy medial gastrocnemius muscle [3],% inhibition of atrophy tibialis anterior muscle [3]
CC#CCC(C)[C@H](O)/C=C/[C@@H]1[C@H]2c3cccc(CCCC(=O)O)c3O[C@H]2C[C@H]1O (mixture of isomers) [Beraprost],46* %,28* %,22%,27* %,28* %,5%
CCCCC[C@H](O)/C=C/[C@@H]1[C@H]2C/C(=C/CCCC(=O)O)C[C@H]2C[C@H]1O [Carbaprostacyclin],1%,0%,24* %,12%,43* %,8%
CCCCC[C@H](O)/C=C/[C@H]1[C@H](O)C[C@]2(C)C/C(=C\CCCC(=O)O)C[C@H]12 [Ciprostene],25* %,5%,20%,9%,43* %,25* %
CC#CCC(C)[C@H](O)/C=C/[C@@H]1[C@H]2C/C(=C/CCCC(=O)O)C[C@H]2C[C@H]1O (stereo partly drawn) [Iloprost],42* %,18%,36* %,21* %,31* %,11%
